Values of other authors, collected in patent US20110082407A1, “Combination Therapies for the Treatment of Obesity” (priority 2009, published 2011).

Tests used:
[1] = in vivo
[2] = literature studies

Row | Molecule | clinically significant side effect limiting clinical use [1] | weight loss of body weight for drug compared with placebo [2] | solubility in water
1 | CCNC(C)Cc1cccc(C(F)(F)F)c1 (centres unmarked) [fenfluramine] | caused heart-valve complications |  | 
2 | CCCCCCCCCCC[C@@H](C[C@@H]1OC(=O)[C@H]1CCCCCC)OC(=O)[C@H](CC(C)C)NC=O [orlistat] | GI side effects | about 5% | 
3 | triacetyl-beta-cyclodextrin |  |  | insoluble
4 | CCN[C@@H](C)Cc1cccc(C(F)(F)F)c1 [dexfenfluramine] | suspected heart valvulopathy | about 5% | 
5 | CC(C)CC(N(C)C)C1(c2ccc(Cl)cc2)CCC1 (centres unmarked) [sibutramine] | can cause hypertension | about 5% | 
